According to EP4653432A1, “AUTOPHAGY INDUCING COMPOUNDS AND USES THEREOF IN THE PREVENTION OR THERAPY OF DISEASES” (Samsara Therapeutics Inc., priority 2024, dated 2025):
Structures can show the parent of a compound that is named as a salt.

Test system: U2OS cell line stably expressing RFP-eGFP-hLC3b (a tandem reporter cell line)
Test: Tandem reporter assay (assay to assess autophagic flux)
Type: cell-based, Human
Settings: result in words; at different concentrations
Procedure: Selected compounds of this invention were also assessed for their ability to stimulate autophagy using a U2OS cell line stabling expressing RFP-eGFP-hLC3b (a tandem reporter cell line). During the process of autophagy, the cargo to be degraded is first enveloped by organelles called autophagosomes. These autophagosomes then fuse with lysosomes, causing them to become acidified and their digestive enzymes to become activated. The term "autophagic flux" is used to represent the dynamic process of autophagy: autophagic flux refers to the whole process of autophagy, including autophagosome formation, maturation, fusion with lysosomes, subsequent breakdown, and the release of macromolecules back into the cytosol (Zhang XJ, Chen S, Huang KX, Le WD. Why should autophagic flux be assessed? Acta Pharmacol Sin. 2013 May; 34(5): 595-9. doi: 10.1038/aps.2012.184. Epub 2013 Mar 11). Compounds that stimulate autophagic flux stimulate the dynamic process of autophagy (the whole process of autophagy). […] Using a fluorescent microscope, the number of autophagosomes and autolysosomes can be counted, allowing for the monitoring of both the induction of autophagy (total puncta count) and the rate of autophagic flux (ratio of red-only to red-and-green puncta). The influence of small molecules on autophagy induction and flux can be assessed using this system by comparison to a non-treated control. […]

| SMILES | number of RFP-only puncta (autolysosomes) relative to a DMSO-treated control (non-treated control) |
| --- | --- |
| CC(C)c1ccc(-n2cc(C#N)c(-c3nc(C(=O)N(C(C)C)C4CCNCC4)cs3)n2)nc1.Cl [Compound E, N-isopropyl-N-4-piperidyl-2-[4-cyano-1-(5-isopropyl-2-pyridyl)-3-pyrazolyl]-1,3-thiazole-4-carboxamide hydrochloride] | Particularly good results |
| CC(C)N(C(=O)c1csc(-c2cnc3ccccn23)n1)[C@@H]1CCNC1 [SLN5-X-0978, (R)-2-(imidazo[1,2-a]pyridin-3-yl)-N-Isopropyl-N-(pyrrolidin-3-yl) thiazole-4-carboxamide hydrochloride] | Particularly good results |
